Data reported in US8795691B2, “Nanotubes and compositions thereof” (Brown University, priority 2010, dated 2014).

What was measured:
Format in all cases: cell-based
[1] = test system: human fetal osteoblast cell line (ATCC, CRL-11372); assay: Osteoblast adhesion on RNT-coated titanium; details: coated on Ti, 4 h, FIG. 5
Method: (§1) Titanium (Ti) (1 cm×1 cm×0.05 cm) (Alfa Aesar Ti foil) and glass coverslips were soaked in acetone for 15 min, sonicated for 15 min in acetone, and rinsed with dH2O. They were then soaked and sonicated in 70% ethanol and rinsed with dH2O. Lastly, they were soaked and sonicated in dH2O for another 15 min and rinsed. The glass was then etched in 1 M NaOH for 1 h and thoroughly rinsed in dH2O. All of the Ti and glass coverslips were oven-dried overnight and autoclaved for sterilization. The day before cell seeding, the cleaned Ti substrates were coated with the various RNTs (0.01 mg/mL) and KRSR peptide (0.01 mg/mL) solutions for 45 min at room temperature. They were then removed from the solutions and air-dried overnight. […]
(§2) Osteoblasts, fibroblasts and endothelial cells were seeded onto the substrates at a density of 3500 cells/cm^2 and were incubated in the cell culture medium (specifically, DMEM supplemented with FBS and P/S for osteoblasts, EMEM supplemented with FBS for fibroblasts and MCDB-131 complete medium for endothelial cells) for 4 h. […] The cell density was then determined by counting cells using Image Pro Analyzer. […]
(§3) Data are presented as the mean value±the standard error of the mean and were analyzed with a student's t-test to make pair-wise comparisons. […]

[2] = test system: rat skin fibroblast cell line (FR, ATCC, CRL-1213); assay: Fibroblast adhesion on RNT-coated titanium; details: 4 h, FIG. 7
Method: as §1, §2, §3

[3] = test system: Rat aortic endothelial cells (RAEC); assay: Endothelial cell adhesion on RNT-coated titanium; details: coated on Ti, 4 h, FIG. 9
Method: as §1, §2, §3

lysine-arginine-serine-argine (KRSR) [KRSR peptide]
osteoblast adhesion (in words) [1]: promoted more osteoblast cell adhesion relative to uncoated Ti
fibroblast adhesion compared to uncoated Ti [2]: did not enhance fibroblast adhesion
endothelial cell adhesion / density [3]: did not enhance endothelial cell adhesion
